{"source": "patent US20220323446A1", "about": "(Amgen Inc., priority 2021, published 2022)", "key": {"[1]": {"tested_on": "NSCLC adenocarcinoma (stage IV)", "assay": "Dose comparison study, tumor response (RECIST 1.1) at 240 mg once daily", "format": "in vivo, human", "method": "The extent of disease is evaluated by contrast-enhanced MRI/CT according to RECIST 1.1, as described below. In order to reduce radiation exposure for subjects, low dose CT should be utilized whenever possible."}, "[2]": {"assay": "Common adverse events during Phase 2 Study", "format": "in vivo, human"}, "[3]": {"assay": "Phase 1 interaction study, sotorasib with omeprazole, fasted conditions", "format": "in vivo, human"}, "[4]": {"assay": "Phase 1 interaction study, sotorasib with famotidine or omeprazole, fed conditions", "format": "in vivo, human", "method": "Safety and tolerability monitoring was performed throughout the study."}, "OATP1B1": {"target": "T1, OATP1B1 (Homo sapiens, UniProt Q9Y6L6)", "T1 construct": "from tissue", "T1 sequence (Q9Y6L6 1-691)": "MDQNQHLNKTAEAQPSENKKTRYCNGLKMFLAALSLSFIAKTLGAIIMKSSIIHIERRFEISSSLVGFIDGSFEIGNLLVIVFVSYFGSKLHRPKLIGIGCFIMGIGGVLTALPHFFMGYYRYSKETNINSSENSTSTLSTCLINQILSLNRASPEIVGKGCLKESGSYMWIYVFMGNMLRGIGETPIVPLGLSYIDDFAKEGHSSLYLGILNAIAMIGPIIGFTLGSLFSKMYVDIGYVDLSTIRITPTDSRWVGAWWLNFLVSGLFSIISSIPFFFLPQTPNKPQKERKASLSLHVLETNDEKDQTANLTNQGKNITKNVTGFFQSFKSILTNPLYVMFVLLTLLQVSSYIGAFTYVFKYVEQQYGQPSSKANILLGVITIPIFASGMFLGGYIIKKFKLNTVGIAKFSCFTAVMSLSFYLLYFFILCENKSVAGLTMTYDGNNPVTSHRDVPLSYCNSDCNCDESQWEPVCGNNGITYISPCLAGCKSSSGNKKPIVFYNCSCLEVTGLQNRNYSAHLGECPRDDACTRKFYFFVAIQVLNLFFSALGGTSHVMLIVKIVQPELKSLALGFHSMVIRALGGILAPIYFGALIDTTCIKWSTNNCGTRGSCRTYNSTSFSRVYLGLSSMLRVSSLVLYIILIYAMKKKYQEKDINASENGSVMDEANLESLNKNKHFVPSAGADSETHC", "assay": "Phase 1 interaction study, sotorasib with single dose of rifampin", "format": "in vivo"}, "[5]": {"tested_on": "phosphorylation of extracellular signal-regulated kinase (ERK)", "settings": "preclinical studies; cited from earlier work"}, "clinical": {"assay": "clinical", "settings": "human, in vivo, oral"}, "[6]": {"assay": "Dose comparison study 960 mg QD vs 240 mg QD, pharmacokinetics", "settings": "for AUC0-24h: GeoMean"}, "[7]": {"settings": "with omeprazole vs sotorasib alone, fasted state"}, "[8]": {"settings": "famotidine 10 hours prior to and 2 hours after sotorasib"}}}
{"smiles": "C=CC(=O)N1CCN(c2nc(=O)n(-c3c(C)ccnc3C(C)C)c3nc(-c4c(O)cccc4F)c(F)cc23)[C@@H](C)C1", "note": "(atropisomer, axis not shown; (M)) [sotorasib, 6-fluoro-7-(2-fluoro-6-hydroxyphenyl)-(1M)-1-[4-methyl-2-(propan-2-yl)pyridin-3-yl]-4-[(2S)-2-methyl-4-(prop-2-enoyl)piperazin-1-yl]pyrido[2,3-d]pyrimidin-2(1H)-one]", "values": [{"measurement": "tumor response", "setting": "[1]; one patient, after cycle 3 and 5", "value": "stable disease (SD)"}, {"measurement": "tumor response", "setting": "[1]; other patient, after cycle 9", "value": "progression disease (PD)"}, {"measurement": "tumor response", "setting": "[1]; other patient, after cycles 3, 5, and 7", "value": "partial response (PR)"}, {"measurement": "tumor response", "setting": "[1]; same patient, after cycles 7 and 9", "value": "partial response (PR)"}, {"measurement": "Abdominal pain, ALL GRADES", "setting": "[2]", "value": 15, "unit": "%"}, {"measurement": "Abdominal pain, GRADE 3 TO 4", "setting": "[2]", "value": 1.0, "unit": "%"}, {"measurement": "Arthalgia, ALL GRADES", "setting": "[2]", "value": 12, "unit": "%"}, {"measurement": "Arthalgia, GRADE 3 TO 4", "setting": "[2]", "value": 1.0, "unit": "%"}, {"measurement": "Constipation, ALL GRADES", "setting": "[2]", "value": 16, "unit": "%"}, {"measurement": "Constipation, GRADE 3 TO 4", "setting": "[2]", "value": 0.5, "unit": "%"}, {"measurement": "Cough, ALL GRADES", "setting": "[2]", "value": 20, "unit": "%"}, {"measurement": "Cough, GRADE 3 TO 4", "setting": "[2]", "value": 1.5, "unit": "%"}, {"measurement": "Decreased appetite, ALL GRADES", "setting": "[2]", "value": 13, "unit": "%"}, {"measurement": "Decreased appetite, GRADE 3 TO 4", "setting": "[2]", "value": 1.0, "unit": "%"}, {"measurement": "Diarrhea, ALL GRADES", "setting": "[2]", "value": 42, "unit": "%"}, {"measurement": "Diarrhea, GRADE 3 TO 4", "setting": "[2]", "value": 5, "unit": "%"}, {"measurement": "Dyspnea, ALL GRADES", "setting": "[2]", "value": 16, "unit": "%"}, {"measurement": "Dyspnea, GRADE 3 TO 4", "setting": "[2]", "value": 2.9, "unit": "%"}, {"measurement": "Fatigue, ALL GRADES", "setting": "[2]", "value": 25, "unit": "%"}, {"measurement": "Fatigue, GRADE 3 TO 4", "setting": "[2]", "value": 2.0, "unit": "%"}, {"measurement": "Headache, ALL GRADES", "setting": "[2]", "value": 10, "unit": "%"}, {"measurement": "Headache, GRADE 3 TO 4", "setting": "[2]", "value": 0, "unit": "%"}, {"measurement": "Hepatotoxicity, ALL GRADES", "setting": "[2]", "value": 25, "unit": "%"}, {"measurement": "Hepatotoxicity, GRADE 3 TO 4", "setting": "[2]", "value": 12, "unit": "%"}, {"measurement": "Musculoskeletal pain, ALL GRADES", "setting": "[2]", "value": 35, "unit": "%"}, {"measurement": "Musculoskeletal pain, GRADE 3 TO 4", "setting": "[2]", "value": 2.0, "unit": "%"}, {"measurement": "Nausea, ALL GRADES", "setting": "[2]", "value": 26, "unit": "%"}, {"measurement": "Nausea, GRADE 3 TO 4", "setting": "[2]", "value": 1.0, "unit": "%"}, {"measurement": "Pneumonia, ALL GRADES", "setting": "[2]", "value": 12, "unit": "%"}, {"measurement": "Pneumonia, GRADE 3 TO 4", "setting": "[2]", "value": 7, "unit": "%"}, {"measurement": "Rash, ALL GRADES", "setting": "[2]", "value": 12, "unit": "%"}, {"measurement": "Rash, GRADE 3 TO 4", "setting": "[2]", "value": 0, "unit": "%"}, {"measurement": "Vomiting, ALL GRADES", "setting": "[2]", "value": 17, "unit": "%"}, {"measurement": "Vomiting, GRADE 3 TO 4", "setting": "[2]", "value": 1.5, "unit": "%"}, {"measurement": "sotorasib time to maximal plasma concentration (Lx) delayed by", "setting": "[3]; 960 mg sotorasib with 40 mg omeprazole vs alone, fasted, healthy subjects", "value": 0.75, "unit": "h"}, {"measurement": "Mean terminal half-life (ty2) of sotorasib with omeprazole compared to alone", "setting": "[3]; 960 mg sotorasib, 40 mg omeprazole, fasted", "value": "similar"}, {"measurement": "safety and tolerability", "setting": "[3]; coadministered with 40 mg omeprazole or alone, healthy subjects", "value": "safe and well tolerated"}, {"measurement": "AUC(0-inf)", "setting": "[3]; human, plasma, 960 mg", "value": 29300, "unit": "ng·h/mL"}, {"measurement": "decrease of sotorasib AUCinf", "setting": "[3]; [7]", "value": 42, "unit": "%"}, {"measurement": "decrease of sotorasib Cmax", "setting": "[3]; [7]", "value": 57, "unit": "%"}, {"measurement": "safety and tolerability", "setting": "[4]; 960 mg with 40 mg famotidine single dose or 40 mg omeprazole multiple daily dosing, healthy subjects", "value": "safe and well tolerated"}, {"measurement": "decrease of sotorasib AUC", "setting": "[4]; [8]", "value": 38, "unit": "%"}, {"measurement": "decrease of sotorasib Cmax", "setting": "[4]; [8]", "value": 35, "unit": "%"}, {"measurement": "decrease of sotorasib AUC", "setting": "[4]; repeat doses of omeprazole", "value": 57, "unit": "%"}, {"measurement": "decrease of sotorasib Cmax", "setting": "[4]; repeat doses of omeprazole", "value": 65, "unit": "%"}, {"measurement": "OATP1B1 substrate status", "setting": "OATP1B1; concluded from single dose rifampin", "value": "not a substrate of OATP1B1"}, {"measurement": "effect of single dose of rifampin on sotorasib PK", "setting": "OATP1B1; single dose rifampin", "value": "did not have a clinically meaningful effect"}, {"measurement": "phosphorylation of ERK", "setting": "[5]", "value": "inhibited nearly all detectable phosphorylation"}, {"measurement": "Tmax", "setting": "clinical; 240 mg", "value": 4, "unit": "h"}, {"measurement": "Tmax", "setting": "clinical; 960 mg", "value": 4, "unit": "h"}, {"measurement": "Tmax", "setting": "[6]; 240 mg, Day 1, Median", "value": 1.0, "unit": "h"}, {"measurement": "AUC0-24h", "setting": "[6]; 240 mg, Day 8", "value": 36300, "unit": "ng·h/mL"}, {"measurement": "AUC0-24h", "setting": "[6]; 960 mg, Day 1", "value": 85000, "unit": "ng·h/mL"}, {"measurement": "mean exposures (Cmax and AUC0-24h) following 960 mg compared to 240 mg", "setting": "[6]; Day 1 and Day 8", "value": "numerically higher"}]}
